The nature of data set [1]: Compound cytotoxicity, XTT-based colorimetric assay. The format is cell-based. The note with it: human, uninfected MT2 cells, day 4, XTT. A digest of the protocol:
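Run under the antiviral-assay protocol but without virus. Viability was read on day 4 and CC50 values were derived from the readout.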

For data set [2], the system named is recombinant NL4-3 virus (nef section replaced with Renilla luciferase gene) in MT-2 cells. Description: HIV cell culture assay (antiviral activity, luciferase readout). The format is cell-based. As to conditions: Renilla, NL43, MT-2 cells infected for 4-5 days with recombinant NL4-3 Renilla luciferase virus, serial dilutions of compound. A digest of the protocol:
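EC50 was derived by median-effect curve fitting of luciferase activity. The signal comes from MT-2 cells infected for 4–5 days with 293T-produced NL4-3 reporter virus, nef partly replaced by Renilla luciferase, in the presence of serially diluted compound.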

A word on the CC50: it is the concentration giving 50% cytotoxicity. As usually defined, the EC50 is the concentration that produces a half-maximal response. Consider `O=C(Cn1ccc(C2CC2)n1)N[C@@H](Cc1cc(F)cc(F)c1)c1nc2cc(-c3ccc(Cl)cc3Cl)ccc2c(=O)n1-c1ccc(S(=O)(=O)N2CCOCC2)cc1` [Example 81, (S)-2-(3-cyclopropyl-1H-pyrazol-1-yl)-N-(1-(7-(2,4-dichlorophenyl)-3-(4-(morpholinosulfonyl)phenyl)-4-oxo-3,4-dihydroquinazolin-2-yl)-2-(3,5-difluorophenyl)ethyl)acetamide], for which the CC50 at 4 day in data set [1] was greater than 1000 nM. Also, in data set [2], the concentration giving a half-maximal response (EC50) came out at 56 nM.

Turning to `COc1ccc(-c2ccc3c(=O)n(-c4ccc(Cl)c5c(NS(C)(=O)=O)nn(C)c45)c([C@H](Cc4cc(F)cc(F)c4)NC(=O)Cn4nc(C(F)F)c5c4C(F)(F)[C@@H]4C[C@H]54)nc3c2)cc1` [Example 156, N-((S)-1-(3-(4-chloro-1-methyl-3-(methylsulfonamido)-1H-indazol-7-yl)-7-(4-methoxyphenyl)-4-oxo-3,4-dihydroquinazolin-2-yl)-2-(3,5-difluorophenyl)ethyl)-2-((3bS,4aR)-3-(difluoromethyl)-5,5-difluoro-3b,4,4a,5-tetrahydro-1H-cyclopropa[3,4]cyclopenta[1,2-c]pyrazol-1-yl)acetamide], the CC50 at 4 day in data set [1] is greater than 500 nM. In addition, in data set [2], the EC50 turned out to be 0.79 nM.

For the compound `Cn1nc(NS(C)(=O)=O)c2c(Cl)ccc(-n3c([C@H](Cc4cc(F)cc(F)c4)NC(=O)Cn4nc(C(F)F)c5c4C(F)(F)[C@@H]4C[C@H]54)nc4cc(-c5cc(F)ccc5F)ccc4c3=O)c21` (atropisomer, axis not shown; (aR)) [Example 99, N-((S)-1-(3-(4-chloro-1-methyl-3-(methylsulfonamido)-1H-indazol-7-yl)-7-(2,5-difluorophenyl)-4-oxo-3,4-dihydroquinazolin-2-yl)-2-(3,5-difluorophenyl)ethyl)-2-((3bS,4aR)-3-(difluoromethyl)-5,5-difluoro-3b,4,4a,5-tetrahydro-1H-cyclopropa[3,4]cyclopenta[1,2-c]pyrazol-1-yl)acetamide], the CC50 at 4 day in data set [1] is greater than 1000 nM. Besides, in data set [2], the EC50 is 0.68 nM.

On to `Cc1ncc(-c2ccc3c(=O)n(-c4ccc(Cl)c5c(NS(C)(=O)=O)nn(C)c45)c([C@H](Cc4cc(F)cc(F)c4)NC(=O)Cn4nc(C(F)F)c5c4C(F)(F)[C@@H]4C[C@H]54)nc3c2)cn1` (atropisomer, axis not shown; (aR)) [Example 130, N-((S)-1-(3-(4-chloro-1-methyl-3-(methylsulfonamido)-1H-indazol-7-yl)-7-(2-methylpyrimidin-5-yl)-4-oxo-3,4-dihydroquinazolin-2-yl)-2-(3,5-difluorophenyl)ethyl)-2-((3bS,4aR)-3-(difluoromethyl)-5,5-difluoro-3b,4,4a,5-tetrahydro-1H-cyclopropa[3,4]cyclopenta[1,2-c]pyrazol-1-yl)acetamide], for which the CC50 at 4 day in data set [1] is greater than 500 nM. The EC50 in data set [2] turned out to be 0.03 nM.

For the compound `O=C(Cn1nc(C(F)F)c2c1C(F)(F)[C@@H]1C[C@H]21)N[C@@H](Cc1cc(F)cc(F)c1)c1nc2cc(-c3cccc(F)c3F)ccc2c(=O)n1-c1ccc(S(=O)(=O)N2CCOCC2)cc1` [Example 149, 2-((3bS,4aR)-3-(difluoromethyl)-5,5-difluoro-3b,4,4a,5-tetrahydro-1H-cyclopropa[3,4]cyclopenta[1,2-c]pyrazol-1-yl)-N-((S)-2-(3,5-difluorophenyl)-1-(7-(2,3-difluorophenyl)-3-(4-(morpholinosulfonyl)phenyl)-4-oxo-3,4-dihydroquinazolin-2-yl)ethyl)acetamide], the CC50 at 4 day in data set [1] was greater than 1000 nM. In data set [2], the EC50 was determined as 8.1 nM.

On to `Cn1nc(NS(C)(=O)=O)c2c(Cl)ccc(-n3c([C@H](Cc4cc(F)cc(F)c4)NC(=O)Cn4nc(C(F)F)c5c4C(F)(F)[C@@H]4C[C@H]54)nc4cc(-c5ccc(F)c(F)c5F)ccc4c3=O)c21` [Example 168, N-((S)-1-(3-(4-chloro-1-methyl-3-(methylsulfonamido)-1H-indazol-7-yl)-4-oxo-7-(2,3,4-trifluorophenyl)-3,4-dihydroquinazolin-2-yl)-2-(3,5-difluorophenyl)ethyl)-2-((3bS,4aR)-3-(difluoromethyl)-5,5-difluoro-3b,4,4a,5-tetrahydro-1H-cyclopropa[3,4]cyclopenta[1,2-c]pyrazol-1-yl)acetamide], for which the CC50 at 4 day in data set [1] is greater than 500 nM. The EC50 in data set [2] was 0.7 nM.

With `Cc1cc(F)ccc1-c1ccc2c(=O)n(-c3ccc(Cl)c4c(NS(C)(=O)=O)nn(C)c34)c([C@H](Cc3cc(F)cc(F)c3)NC(=O)Cn3nc(C(F)F)c4c3C(F)(F)[C@@H]3C[C@H]43)nc2c1` [Example 188, N-((S)-1-(3-(4-chloro-1-methyl-3-(methylsulfonamido)-1H-indazol-7-yl)-7-(4-fluoro-2-methylphenyl)-4-oxo-3,4-dihydroquinazolin-2-yl)-2-(3,5-difluorophenyl)ethyl)-2-((3bS,4aR)-3-(difluoromethyl)-5,5-difluoro-3b,4,4a,5-tetrahydro-1H-cyclopropa[3,4]cyclopenta[1,2-c]pyrazol-1-yl)acetamide], in data set [1], the CC50 at 4 day is greater than 1000 nM. The EC50 in data set [2] worked out at 1.7 nM.

As to `CC(C)c1cccc(-c2ccc3c(=O)n(-c4ccc(Cl)c5c(NS(C)(=O)=O)nn(C)c45)c([C@H](Cc4cc(F)cc(F)c4)NC(=O)Cn4nc(C(F)F)c5c4C(F)(F)[C@@H]4C[C@H]54)nc3c2)c1` (atropisomer, axis not shown; (aR)) [Example 41, N-((S)-1-(3-(4-chloro-1-methyl-3-(methylsulfonamido)-1H-indazol-7-yl)-7-(3-isopropylphenyl)-4-oxo-3,4-dihydroquinazolin-2-yl)-2-(3,5-difluorophenyl)ethyl)-2-((3bS,4aR)-3-(difluoromethyl)-5,5-difluoro-3b,4,4a,5-tetrahydro-1H-cyclopropa[3,4]cyclopenta[1,2-c]pyrazol-1-yl)acetamide], in data set [1], the CC50 at 4 day is greater than 1000 nM. In data set [2], the EC50 is 4.5 nM.

In data set [1], `Cc1noc(C)c1-c1ccc2c(=O)n(-c3ccc(Cl)c4c(NS(C)(=O)=O)nn(C)c34)c([C@H](Cc3cc(F)cc(F)c3)NC(=O)Cn3nc(C(F)F)c4c3C(F)(F)[C@@H]3C[C@H]43)nc2c1` (atropisomer, axis not shown; (aR)) [Example 94, N-((S)-1-(3-(4-chloro-1-methyl-3-(methylsulfonamido)-1H-indazol-7-yl)-7-(3,5-dimethylisoxazol-4-yl)-4-oxo-3,4-dihydroquinazolin-2-yl)-2-(3,5-difluorophenyl)ethyl)-2-((3bS,4aR)-3-(difluoromethyl)-5,5-difluoro-3b,4,4a,5-tetrahydro-1H-cyclopropa[3,4]cyclopenta[1,2-c]pyrazol-1-yl)acetamide] registered a CC50 at 4 day greater than 1000 nM. Moreover, in data set [2], the EC50 was 0.44 nM.

As to `Cn1nc(NS(C)(=O)=O)c2c(Cl)ccc(-n3c([C@H](Cc4cc(F)cc(F)c4)NC(=O)Cn4nc(C(F)F)c5c4C(F)(F)[C@@H]4C[C@H]54)nc4cc(-c5ccc(C(C)(C)C)cc5)ccc4c3=O)c21` [Example 192, N-((S)-1-(7-(4-(tert-butyl)phenyl)-3-(4-chloro-1-methyl-3-(methylsulfonamido)-1H-indazol-7-yl)-4-oxo-3,4-dihydroquinazolin-2-yl)-2-(3,5-difluorophenyl)ethyl)-2-((3bS,4aR)-3-(difluoromethyl)-5,5-difluoro-3b,4,4a,5-tetrahydro-1H-cyclopropa[3,4]cyclopenta[1,2-c]pyrazol-1-yl)acetamide], the CC50 at 4 day in data set [1] was greater than 1000 nM. Moreover, the EC50 in data set [2] was 5.1 nM.

For the compound `Cc1ccccc1-c1ccc2c(=O)n(-c3ccc(S(=O)(=O)N4CCOCC4)cc3)c([C@H](Cc3cc(F)cc(F)c3)NC(=O)Cn3ccc(C4CC4)n3)nc2c1` [Example 143, (S)-2-(3-cyclopropyl-1H-pyrazol-1-yl)-N-(2-(3,5-difluorophenyl)-1-(3-(4-(morpholinosulfonyl)phenyl)-4-oxo-7-(o-tolyl)-3,4-dihydroquinazolin-2-yl)ethyl)acetamide], in data set [1], the CC50 at 4 day is greater than 1000 nM. In data set [2], the EC50 stood at 42 nM.

In the case of `COc1ccccc1-c1ccc2c(=O)n(-c3ccc(Cl)c4c(NS(C)(=O)=O)nn(C)c34)c([C@H](Cc3cc(F)cc(F)c3)NC(=O)Cn3nc(C(F)F)c4c3C(F)(F)[C@@H]3C[C@H]43)nc2c1` [Example 186, N-((S)-1-(3-(4-chloro-1-methyl-3-(methylsulfonamido)-1H-indazol-7-yl)-7-(2-methoxyphenyl)-4-oxo-3,4-dihydroquinazolin-2-yl)-2-(3,5-difluorophenyl)ethyl)-2-((3bS,4aR)-3-(difluoromethyl)-5,5-difluoro-3b,4,4a,5-tetrahydro-1H-cyclopropa[3,4]cyclopenta[1,2-c]pyrazol-1-yl)acetamide], the CC50 at 4 day in data set [1] is greater than 1000 nM. In addition, in data set [2], the EC50 worked out at 2.4 nM.

Consider `Cn1nc(NS(C)(=O)=O)c2c(Cl)ccc(-n3c([C@H](Cc4cc(F)cc(F)c4)NC(=O)Cn4nc(C(F)F)c5c4C(F)(F)[C@@H]4C[C@H]54)nc4cc(-c5ccc(F)cc5)ccc4c3=O)c21` [Example 193, N-((S)-1-(3-(4-chloro-1-methyl-3-(methylsulfonamido)-1H-indazol-7-yl)-7-(4-fluorophenyl)-4-oxo-3,4-dihydroquinazolin-2-yl)-2-(3,5-difluorophenyl)ethyl)-2-((3bS,4aR)-3-(difluoromethyl)-5,5-difluoro-3b,4,4a,5-tetrahydro-1H-cyclopropa[3,4]cyclopenta[1,2-c]pyrazol-1-yl)acetamide], for which, in data set [1], the CC50 at 4 day is greater than 1000 nM. Also, the EC50 in data set [2] was 0.95 nM.
